For one test, the target named is T1, BVU_0767 (Phocaeicola vulgatus, UniProt A6KYF7).
T1 sequence (A6KYF7 1-137): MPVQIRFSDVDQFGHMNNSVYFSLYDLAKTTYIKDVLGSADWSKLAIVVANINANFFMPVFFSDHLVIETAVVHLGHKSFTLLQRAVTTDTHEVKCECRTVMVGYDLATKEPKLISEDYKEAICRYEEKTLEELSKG
In words: DTNB thioesterase assay, […] nm. It counts as biochemical. Particulars: 100 uM acyl-CoA, 25 nM enzyme, 60 mM potassium phosphate pH 7.4, 37 C.

For another test, the target named is T2, BT_3942 (Bacteroides thetaiotaomicron, UniProt Q8A0S9).
T2 sequence (Q8A0S9 1-145): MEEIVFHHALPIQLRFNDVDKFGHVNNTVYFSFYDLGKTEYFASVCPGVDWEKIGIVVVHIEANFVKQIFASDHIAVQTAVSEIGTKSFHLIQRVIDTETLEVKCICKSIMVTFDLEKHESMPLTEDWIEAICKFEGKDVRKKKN
In words: DTNB thioesterase assay, […] nm. It counts as biochemical. Particulars: 100 uM acyl-CoA, 25 nM enzyme, 60 mM potassium phosphate pH 7.4, 37 C.

The source of these data is article PMC8896310 (Cell, 2022).

Turning to `CCCC(=O)SCCNC(=O)CCNC(=O)[C@H](O)C(C)(C)COP(=O)(O)OP(=O)(O)OC[C@H]1O[C@@H](n2cnc3c(N)ncnc32)[C@H](O)[C@@H]1OP(=O)(O)O` [butyryl-CoA], at BVU_0767, the “DTNB thioesterase assay, 412 nm” value is “different substrate specificity for hydrolysis of short chain lengths of Acyl-CoAs and propionyl- and butyryl-CoA”.

For the compound `CCC(=O)SCCNC(=O)CCNC(=O)[C@H](O)C(C)(C)COP(=O)(O)OP(=O)(O)OC[C@H]1O[C@@H](n2cnc3c(N)ncnc32)[C@H](O)[C@@H]1OP(=O)(O)O` [propionyl-CoA], the “DTNB thioesterase assay, 412 nm” value on BT_3942 was “different substrate specificity for hydrolysis of short chain lengths of Acyl-CoAs and propionyl- and butyryl-CoA”; at BVU_0767, “different substrate specificity for hydrolysis of short chain lengths of Acyl-CoAs and propionyl- and butyryl-CoA”.
